14 compounds from patent publication US12486290B2, “Isoindolinone and indazole compounds for the degradation of EGFR” (C4 THERAPEUTICS, INC., priority 2019, dated 2025) can be followed below.

The target of assay [1] is T1, EGFR L858R (NCI-H3255 cells) (Homo sapiens, UniProt P00533, L858R).
T1 construct: NCI-H3255 (harboring EGFR heterozygous L858R mutation); host or cells: NCI-H3255
As to the kind of experiment: EGFR (L858R) degradation analysis, Total EGFR (L858R) HTRF, NCI-H3255 cells. It counts as cell-based. The settings on record: 6 hours. The source says:
(§1) NCI-H1975 (harboring EGFR heterozygous T790M/L858R mutations) and NCI-H3255 (harboring EGFR heterozygous L858R mutation) were purchased from ATCC and NCI, respectively. NCI-H1975+CS (harboring EGFR heterozygous T/790M/L858R/C797S mutations) was generated using CRISPR technology to introduce the additional C797S mutation by Horizon Discovery. RPMI 1640 no-phenol red medium and fetal bovine serum (FBS) were purchased from Gibco (Grand Island, NY, USA). Cell culture flasks and 384-well microplates were acquired from VWR (Radnor, PA, USA). Total EGFR (L858R) HTRF assay kits were purchased from Cisbio (Bedford, MA, USA).
(§2) Degradation of EGFR protein containing L858R mutation was determined based on quantification of FRET signal using Total EGFR (L858R) HTRF assay kit. Test compounds were added to the 384-well plate from a top concentration of 10 μM with 11 points, half log titration in duplicates. NCI-H1975, NCI-H1975+CS or NCI-H3255 cells were added into 384-well plates at a cell density of 10000, 10000 or 1000 cells per well, respectively. The plates were kept at 37° C. with 5% CO2 for 6 hours. Cells treated in the absence of the test compound were the negative control. Positive control was set by wells containing all reagents but no cells. FRET signal was acquired on EnVision™ Multilabel Reader (PerkinElmer, Santa Clara, CA, USA).
Background: Time-resolved FRET reads energy transfer from a long-lived donor to a nearby acceptor.

For assay [2], the target named is T2, EGFR T790M/L858R (NCI-H1975 cells) (Homo sapiens, UniProt P00533, L858R/T790M).
T2 construct: NCI-H1975 (harboring EGFR heterozygous T790M/L858R mutations); host or cells: NCI-H1975
T2 sequence (P00533 25-1210 T790M/L858R): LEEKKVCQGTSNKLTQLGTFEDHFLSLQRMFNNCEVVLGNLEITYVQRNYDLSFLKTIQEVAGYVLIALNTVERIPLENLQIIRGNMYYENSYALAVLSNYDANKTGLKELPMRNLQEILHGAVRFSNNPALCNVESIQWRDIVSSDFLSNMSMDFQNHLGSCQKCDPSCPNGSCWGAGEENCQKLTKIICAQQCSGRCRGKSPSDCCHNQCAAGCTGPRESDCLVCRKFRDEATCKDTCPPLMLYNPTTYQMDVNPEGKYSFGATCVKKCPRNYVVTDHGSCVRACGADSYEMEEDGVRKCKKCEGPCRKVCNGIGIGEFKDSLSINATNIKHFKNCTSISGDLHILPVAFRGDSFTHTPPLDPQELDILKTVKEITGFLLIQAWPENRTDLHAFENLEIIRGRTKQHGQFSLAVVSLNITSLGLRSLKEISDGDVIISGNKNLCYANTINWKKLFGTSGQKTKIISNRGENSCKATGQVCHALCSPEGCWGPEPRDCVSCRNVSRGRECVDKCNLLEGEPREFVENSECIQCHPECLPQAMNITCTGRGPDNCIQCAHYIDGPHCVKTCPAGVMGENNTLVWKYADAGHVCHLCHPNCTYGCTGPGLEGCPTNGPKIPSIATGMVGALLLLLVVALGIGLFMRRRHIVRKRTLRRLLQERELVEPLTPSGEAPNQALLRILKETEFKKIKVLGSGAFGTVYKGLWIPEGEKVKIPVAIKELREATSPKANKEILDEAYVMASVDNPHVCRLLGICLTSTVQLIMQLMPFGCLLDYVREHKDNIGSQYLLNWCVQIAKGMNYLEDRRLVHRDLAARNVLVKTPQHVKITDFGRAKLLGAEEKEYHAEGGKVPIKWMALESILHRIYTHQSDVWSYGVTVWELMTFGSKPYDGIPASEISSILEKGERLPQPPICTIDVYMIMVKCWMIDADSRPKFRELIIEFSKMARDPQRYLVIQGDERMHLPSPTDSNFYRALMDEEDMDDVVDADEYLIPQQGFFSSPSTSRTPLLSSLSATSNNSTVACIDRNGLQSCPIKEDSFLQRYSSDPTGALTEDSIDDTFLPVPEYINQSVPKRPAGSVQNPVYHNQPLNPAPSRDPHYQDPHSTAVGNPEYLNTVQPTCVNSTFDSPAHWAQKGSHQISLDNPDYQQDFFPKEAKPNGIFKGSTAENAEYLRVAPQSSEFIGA
As to the kind of experiment: EGFR (L858R) degradation analysis, Total EGFR (L858R) HTRF, NCI-H1975 cells. The settings on record: 6 hours. The class given is cell-based.
Source text: as §1, §2

T1 sequence (P00533 25-1210 L858R): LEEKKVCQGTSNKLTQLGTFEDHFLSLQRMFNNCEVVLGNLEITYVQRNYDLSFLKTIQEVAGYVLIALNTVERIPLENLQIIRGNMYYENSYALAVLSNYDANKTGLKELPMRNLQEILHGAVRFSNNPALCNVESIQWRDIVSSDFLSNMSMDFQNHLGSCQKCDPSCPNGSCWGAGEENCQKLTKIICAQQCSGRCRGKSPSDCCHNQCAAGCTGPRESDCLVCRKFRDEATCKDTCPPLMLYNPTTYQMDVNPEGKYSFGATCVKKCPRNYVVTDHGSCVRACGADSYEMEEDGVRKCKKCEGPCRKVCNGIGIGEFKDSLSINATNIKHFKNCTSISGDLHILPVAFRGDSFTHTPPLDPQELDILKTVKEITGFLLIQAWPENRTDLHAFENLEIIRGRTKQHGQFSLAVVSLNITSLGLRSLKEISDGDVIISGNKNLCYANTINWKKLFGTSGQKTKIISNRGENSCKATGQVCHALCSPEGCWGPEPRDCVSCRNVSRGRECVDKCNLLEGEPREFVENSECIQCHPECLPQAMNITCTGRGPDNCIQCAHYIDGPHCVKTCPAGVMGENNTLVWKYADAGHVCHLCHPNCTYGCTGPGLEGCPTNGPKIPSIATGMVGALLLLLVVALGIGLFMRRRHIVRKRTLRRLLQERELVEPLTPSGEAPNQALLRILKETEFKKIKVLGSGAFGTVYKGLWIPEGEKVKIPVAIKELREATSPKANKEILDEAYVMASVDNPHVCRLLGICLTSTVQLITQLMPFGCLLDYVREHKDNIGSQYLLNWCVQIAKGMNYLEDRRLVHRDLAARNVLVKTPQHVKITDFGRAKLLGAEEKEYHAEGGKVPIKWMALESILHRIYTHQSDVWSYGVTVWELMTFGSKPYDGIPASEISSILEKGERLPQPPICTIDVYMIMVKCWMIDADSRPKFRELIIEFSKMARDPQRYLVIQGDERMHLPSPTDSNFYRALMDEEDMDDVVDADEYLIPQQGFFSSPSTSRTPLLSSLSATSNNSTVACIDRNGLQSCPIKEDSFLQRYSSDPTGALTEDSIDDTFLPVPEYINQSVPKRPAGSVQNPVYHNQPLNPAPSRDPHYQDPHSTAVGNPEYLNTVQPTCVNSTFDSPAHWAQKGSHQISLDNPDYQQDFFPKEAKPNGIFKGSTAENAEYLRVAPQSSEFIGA

As usually defined, the DC50 is the midpoint of the concentration-degradation curve. A high value points to a less potent degrader. With `O=C1CC[C@H](Nc2ccc(C3CCN(CC(=O)N4CCC(NC(=O)c5ccc(C#Cc6cc(F)c7c(c6)C(=O)N(C(C(=O)Nc6nccs6)c6ncn8c6CCC8)C7)cn5)CC4)CC3)c(F)c2)C(=O)N1` (stereo partly drawn) [Compound 4, 5-[2-[2-[1-(6,7-dihydro-5H-pyrrolo[1,2-c]imidazol-1-yl)-2-oxo-2-(thiazol-2-ylamino)ethyl]-7-fluoro-3-oxo-isoindolin-5-yl]ethynyl]-N-[1-[2-[4-[4-[[(3S)-2,6-dioxo-3-piperidyl]amino]-2-fluoro-phenyl]-1-piperidyl]acetyl]-4-piperidyl]pyridine-2-carboxamide], the DC50 in assay [1] worked out at 9 nM; in assay [2], 10 nM. The corresponding values for `O=C1CCC(Nc2ccc(C3CCN(C(=O)CN4CCN(c5ccc(-c6cc(F)c7c(c6)C(=O)N(C(C(=O)Nc6nccs6)c6ncn8c6CCC8)C7)cc5)CC4)CC3)cc2)C(=O)N1` (stereo not shown) [Compound 10, 2-(6,7-dihydro-5H-pyrrolo[1,2-c]imidazol-1-yl)-2-(6-(4-(4-(2-(4-(4-((2,6-dioxopiperidin-3-yl)amino)phenyl)piperidin-1-yl)-2-oxoethyl)piperazin-1-yl)phenyl)-4-fluoro-1-oxoisoindolin-2-yl)-N-(thiazol-2-yl)acetamide] are 19 nM and 21 nM. On to `O=C1CCC(Nc2ccc(C3CCN(CC(=O)N4CCN(c5ccc(-c6cc(F)c7c(c6)C(=O)N(C(C(=O)Nc6nccs6)c6ncn8c6CCC8)C7)cc5)CC4)CC3)nc2)C(=O)N1` (stereo not shown) [Compound 11, 2-(6,7-dihydro-5H-pyrrolo[1,2-c]imidazol-1-yl)-2-[6-[4-[4-[2-[4-[5-[(2,6-dioxo-3-piperidyl)amino]-2-pyridyl]-1-piperidyl]acetyl]piperazin-1-yl]phenyl]-4-fluoro-1-oxo-isoindolin-2-yl]-N-thiazol-2-yl-acetamide], for which the DC50 in assay [1] was determined as 21 nM; in assay [2] it was 20 nM. For `O=C1CCC(Nc2ccc(C3CCN(CC(=O)N4CCN(c5ccc(-c6cc(F)c7c(c6)C(=O)N(C(C(=O)Nc6nccs6)c6ncn8c6CCC8)C7)cc5)CC4)CC3)c(F)c2)C(=O)N1` (stereo not shown) [Compound 12, 2-(6,7-dihydro-5H-pyrrolo[1,2-c]imidazol-1-yl)-2-[6-[4-[4-[2-[4-[4-[(2,6-dioxo-3-piperidyl)amino]-2-fluoro-phenyl]-1-piperidyl]acetyl]piperazin-1-yl]phenyl]-4-fluoro-1-oxo-isoindolin-2-yl]-N-thiazol-2-yl-acetamide], in that order: 11 nM and 39 nM.

Consider `O=C1CC[C@H](Nc2ccc(C3CCN(CC(=O)N4CCC(c5ccc(-c6cc(F)c7c(c6)C(=O)N(C(C(=O)Nc6nccs6)c6ncn8c6CCC8)C7)cc5)CC4)CC3)cc2)C(=O)N1` (stereo partly drawn) [Compound 22, 2-(6,7-dihydro-5H-pyrrolo[1,2-c]imidazol-1-yl)-2-(6-(4-(1-(2-(4-(4-(((S)-2,6-dioxopiperidin-3-yl)amino)phenyl)piperidin-1-yl)acetyl)piperidin-4-yl)phenyl)-4-fluoro-1-oxoisoindolin-2-yl)-N-(thiazol-2-yl)acetamide], for which the values for the DC50 in assay [1] and in assay [2] were 15 nM and 31 nM, respectively.

As for `O=C1CC[C@H](Nc2ccc(C3CCN(CC(=O)N4CCN(c5ccc(-c6cc(F)c7c(c6)C(=O)N(C(C(=O)Nc6nccs6)c6ncn8c6CCC8)C7)cn5)CC4)CC3)c(F)c2)C(=O)N1` (stereo partly drawn) [Compound 27, 2-(6,7-dihydro-5H-pyrrolo[1,2-c]imidazol-1-yl)-2-[6-[6-[4-[2-[4-[4-[[(3S)-2,6-dioxo-3-piperidyl]amino]-2-fluoro-phenyl]-1-piperidyl]acetyl]piperazin-1-yl]-3-pyridyl]-4-fluoro-1-oxo-isoindolin-2-yl]-N-thiazol-2-yl-acetamide], the DC50 in assay [1] stood at 20 nM; in assay [2] it was 36 nM. For `O=C1CC[C@H](Nc2ccc(C3CCN(CC(=O)N4CCC(n5cc(-c6cc(F)c7c(c6)C(=O)N(C(C(=O)Nc6nccs6)c6ncn8c6CCC8)C7)cn5)CC4)CC3)cc2)C(=O)N1` (stereo partly drawn) [Compound 28, 2-(6,7-dihydro-5H-pyrrolo[1,2-c]imidazol-1-yl)-2-[6-[1-[1-[2-[4-[4-[[(3S)-2,6-dioxo-3-piperidyl]amino]phenyl]-1-piperidyl]acetyl]-4-piperidyl]pyrazol-4-yl]-4-fluoro-1-oxo-isoindolin-2-yl]-N-thiazol-2-yl-acetamide], in that order: 17 nM and 16 nM. As to `O=C1CC[C@H](Nc2ccc(C3CCN(CC(=O)N4CCC(c5cnn(-c6cc(F)c7c(c6)C(=O)N(C(C(=O)Nc6nccs6)c6ncn8c6CCC8)C7)c5)CC4)CC3)cc2)C(=O)N1` (stereo partly drawn) [Compound 29, 2-(6,7-dihydro-5H-pyrrolo[1,2-c]imidazol-1-yl)-2-[6-[4-[1-[2-[4-[4-[[(3S)-2,6-dioxo-3-piperidyl]amino]phenyl]-1-piperidyl]acetyl]-4-piperidyl]pyrazol-1-yl]-4-fluoro-1-oxo-isoindolin-2-yl]-N-thiazol-2-yl-acetamide], the 50% degradation concentration (DC50) in assay [1] is 20 nM; in assay [2], 24 nM. The corresponding values for `O=C1CC[C@H](Nc2ccc(C3CCN(CC(=O)N4CCC(n5cc(-c6cc(F)c7c(c6)C(=O)N(C(C(=O)Nc6nccs6)c6ncn8c6CCC8)C7)nn5)CC4)CC3)cc2)C(=O)N1` (stereo partly drawn) [Compound 30, 2-(6,7-dihydro-5H-pyrrolo[1,2-c]imidazol-1-yl)-2-(6-(1-(1-(2-(4-(4-(((S)-2,6-dioxopiperidin-3-yl)amino)phenyl)piperidin-1-yl)acetyl)piperidin-4-yl)-1H-1,2,3-triazol-4-yl)-4-fluoro-1-oxoisoindolin-2-yl)-N-(thiazol-2-yl)acetamide] are 35 nM and 15 nM. The corresponding values for `O=C1CCC(Nc2ccc(C3CCN(C(=O)C(=O)N4CCC(Oc5ccc(-c6cc(F)c7c(c6)C(=O)N(C(C(=O)Nc6nccs6)c6ncn8c6CCC8)C7)cc5)CC4)CC3)cc2)C(=O)N1` (stereo not shown) [Compound 40, 2-(6,7-dihydro-5H-pyrrolo[1,2-c]imidazol-1-yl)-2-[6-[4-[[1-[2-[4-[4-[(2,6-dioxo-3-piperidyl)amino]phenyl]-1-piperidyl]-2-oxo-acetyl]-4-piperidyl]oxy]phenyl]-4-fluoro-1-oxo-isoindolin-2-yl]-N-thiazol-2-yl-acetamide] are 14 nM and 21 nM. The corresponding values for `Cn1nc(N2CCC(=O)NC2=O)c2ccc(C3CCN(CC(=O)N4CCN(c5ccc(-c6cc(F)c7c(c6)C(=O)N(C(C(=O)Nc6nccs6)c6ncn8c6C[C@@H](F)C8)C7)cc5)CC4)CC3)cc21` (stereo partly drawn) [Compound 45, 2-[6-[4-[4-[2-[4-[3-(2,4-dioxohexahydropyrimidin-1-yl)-1-methyl-indazol-6-yl]-1-piperidyl]acetyl]piperazin-1-yl]phenyl]-4-fluoro-1-oxo-isoindolin-2-yl]-2-[(6R)-6-fluoro-6,7-dihydro-5H-pyrrolo[1,2-c]imidazol-1-yl]-N-thiazol-2-yl-acetamide] are 16 nM and 14 nM.

`O=C1CC[C@H](Nc2ccc(N3CCC(O)(C(=O)N4CC5(C4)CN(c4ccc(-c6cc(F)c7c(c6)C(=O)N(C(C(=O)Nc6nccs6)c6ncn8c6CCC8)C7)cc4)C5)CC3)c(F)c2)C(=O)N1` (stereo partly shown) [Compound 146, 2-(6,7-dihydro-5H-pyrrolo[1,2-c]imidazol-1-yl)-2-[6-[4-[2-[1-[4-[[2,6-dioxo-3-piperidyl]amino]-2-fluoro-phenyl]-4-hydroxy-piperidine-4-carbonyl]-2,6-diazaspiro[3.3]heptan-6-yl]phenyl]-4-fluoro-1-oxo-isoindolin-2-yl]-N-thiazol-2-yl-acetamide] yielded a DC50 in assay [2] (class symbols) of under 50 nM. On the same count and under the same terms, in the case of `O=C1CCC(c2ccc(N3CCC(O)(CC(=O)N4CC5(CCN(c6ccc(-c7cc(F)c8c(c7)C(=O)N(C(C(=O)Nc7nccs7)c7ncn9c7CCC9)C8)cc6)CC5)C4)CC3)c(F)c2)C(=O)N1` (stereo not shown) [Compound 159, 2-(6,7-dihydro-5H-pyrrolo[1,2-c]imidazol-1-yl)-2-[6-[4-[2-[2-[1-[4-(2,6-dioxo-3-piperidyl)-2-fluoro-phenyl]-4-hydroxy-4-piperidyl]acetyl]-2,7-diazaspiro[3.5]nonan-7-yl]phenyl]-4-fluoro-1-oxo-isoindolin-2-yl]-N-thiazol-2-yl-acetamide] it was 50 to 150 nM; in that of `O=C1CCC(c2ccc(N3CCC(O)(CC(=O)N4CCC5(CC4)CN(c4ccc(-c6cc(F)c7c(c6)C(=O)N(C(C(=O)Nc6nccs6)c6ncn8c6CCC8)C7)cc4)C5)CC3)c(F)c2)C(=O)N1` (stereo not shown) [Compound 160, 2-(6,7-dihydro-5H-pyrrolo[1,2-c]imidazol-1-yl)-2-[6-[4-[7-[2-[1-[4-(2,6-dioxo-3-piperidyl)-2-fluoro-phenyl]-4-hydroxy-4-piperidyl]acetyl]-2,7-diazaspiro[3.5]nonan-2-yl]phenyl]-4-fluoro-1-oxo-isoindolin-2-yl]-N-thiazol-2-yl-acetamide], 50 to 150 nM.
